Test results from patent publication US20200399238A1, “THERAPEUTIC AURONES” (MIDDLE TENNESSEE STATE UNIVERSITY, priority 2016, published 2020).
Several values for one entry are separate records, joined by “and”; a condition that tells them apart may be missing. Identical values can stand only once. Like-named read-outs stand apart in the source and are kept apart here.

Assays:
[1] = test system: Trypanosoma brucei brucei 427 cells; assay: T. brucei culture and assay (PrestoBlue); format: cell-based
[2] = test system: Trypanosoma cruzi Tulahuen cells expressing beta-galactosidase; assay: T. cruzi intracellular assay (beta-galactosidase, L6 host cells); conditions: for IC50: Trypanosoma cruzi, TULAHUEN; for Selectivity L6/TC-I: Table 3A
[3] = test system: Leishmania amazonensis promastigotes expressing beta-lactamase; assay: microbe, parasite or virus in culture; format: cell-based; conditions: for IC50: Leishmania amazonensis
Protocol: Leishmania amazonensis promastigotes expressing beta-lactamase (Buckner et al., Am. J. Trop. Med. Hyg. 72 (2005) 600-605. doi:72/5/600 [pii]) were cultured in RPMI supplemented with 10% fetal calf serum and 1% pen-strep-glut solution (Sigma) at 27° C. Stationary phase promastigotes were adjusted in fresh media, treated with compounds, and incubated at 37° C. At 24 hours, 100 uL of cultures was added to 50 uL of the CellTiter Glo® solution. Luminescence readings were taken with a spectrophotometer and used to calculate inhibition.

[4] = test system: rat skeletal muscle cell line, L6; assay: cells; format: cell-based
Protocol: Cells were maintained in high glucose DMEM obtained from HyClone Laboratories (Logan, Utah) and supplemented with FCS and P/S at the same concentrations used for parasite culture. Cells were passaged every 3-4 days and maintained in a 37° C. humidified incubator in an atmosphere of 5% CO2. For assays. cells were detached, counted using a hemocytometer, and adjusted using fresh media to deliver 5×10^3 cells per well (90 μL) in black walled, flat clear bottom 96-well microtiter plates. After 3 h incubation for attachment, compounds diluted in culture medium were added (10 μL) to triplicate wells. Positive controls (cells treated with podophyllotoxin (Sigma, St. Louis, Mo.)), negative controls (untreated cells), solvent controls (DMSO) and media blanks were included on each plate. Following incubation for 71.5 h, 11 μL of PrestoBlue was added into each well.

[5] = read-out: IC50 L. amaz. (footnote c: value obtained from one trial)
[6] = Trypanosoma brucei, Table 1, mean of 2(+) independent trials, read-out: IC50 T. brucei
[7] = Trypanosoma brucei, read-out: T. brucei IC50 dose
[8] = Rattus norvegicus, Table 1, read-out: IC50 Toxicity (L6)
[9] = read-out: IC50 T. cruzi, Table 1, intracellular assay, mean of 2(+) trials (^c one trial)
[10] = read-out: IC50 T. cruzi, Table 2, intracellular assay, mean of 2(+) independent trials
[11] = Table 2, L6 IC50 / L. amazonensis IC50
[12] = Table 2, mean of 2(+) independent trials, read-out: IC50 T. brucei
[13] = Rattus norvegicus, Table 3A, weighted means of two or more independent trials, read-out: IC50 L6
[14] = Table 2, L6 mammalian cells, read-out: IC50 Toxicity (L6)
[15] = Table 1, intracellular T. cruzi IC50
[16] = Table 2, L6 IC50 / T. cruzi IC50 (intracellular assay)
[17] = estimated from highest L6 dose tested where no L6 IC50
[18] = read-out: IC50 TC-I, Table 3A, weighted means of two or more independent trials
[19] = Table 2, L6 IC50 / T. brucei IC50
[20] = Rattus norvegicus, Table 3B, weighted means of two or more independent trials, read-out: IC50 L6
[21] = read-out: IC50 TC-I, Table 3B, weighted means of two or more independent trials
[22] = Table 3B, estimated from highest L6 dose tested where no L6 IC50

| SMILES | IC50 ([3]; read-out: IC50 L. amaz.) [µM] | IC50 [1, 6] [µM] | IC50 [4, 8] [µM] | IC50 [2, 9] [µM] | IC50 [2, 10] [µM] | also measured |
| --- | --- | --- | --- | --- | --- | --- |
| O=C1/C(=C/c2cccc([N+](=O)[O-])c2)Oc2ccccc21 [Aurone 12a] |  |  |  |  |  | activity against T. brucei [1]: modest activity; activity against T. cruzi [2]: modest activity |
| O=C1/C(=C/C=C/c2ccccc2)Oc2ccccc21 [Aurone 2013] | 3.03 | 13.2 | 58 | 14.1 | 14.1 | IC50 [3, 5]: 3.03 µM; IC50 [1, 7]: 13.2 µM; IC50 ([2]; read-out: T. cruzi IC50 dose): 14.1 µM |
| COc1cc(OC)c2c(c1)O/C(=C\c1ccc(C)cc1)C2=O [Aurone 7000] |  | 23.2 | 142 | 7.92 | 7.92 |  |
| O=C1/C(=C/c2ccc(Br)cc2)Oc2c1ccc(O)c2O [Aurone 1005, (Z)-2-(4-bromobenzylidene)-6,7-dihydroxybenzofuran-3(2H)-one] | 31.1 | 48 | > 100 | > 50 |  |  |
| COc1ccc(/C=C2\Oc3cc(O)ccc3C2=O)cc1O [Aurone 2911, (Z)-6-hydroxy-2-(3-hydroxy-4-methoxybenzylidene)benzofuran-3(2H)-one] | 6.51 | > 50 | 52.6 | > 50 | > 50 |  |
| COc1ccc(/C=C2\Oc3cc(O)ccc3C2=O)c(OC)c1OC [Aurone 2912, (Z)-6-hydroxy-2-(2,3,4-trimethoxybenzylidene)benzofuran-3(2H)-one] | 25.7 | > 50 | > 100 | > 50 |  |  |
| O=C1/C(=C/c2cccc(Br)c2)Oc2ccccc21 [Aurone 9030, (Z)-2-(3-bromobenzylidene)benzofuran-3(2H)-one] | < 1 | > 50 | > 100 | 7.35 | 7.35 | IC50 [3, 5]: < 1 µM; Selectivity L6/La ([3]; Table 1): >100; Selectivity L6/La [3, 11]: >100; IC50 [1, 12]: > 50 µM; IC50 [4, 13]: > 100 µM; IC50 [4, 14]: > 100 µM; Selectivity L6/Tc [2, 15]: >13.61; Selectivity L6/Tc [2, 16]: >13.61; Selectivity L6/TC-I [2, 17]: >13.61; IC50 [2, 18]: 7.35 µM |
| O=C1/C(=C/c2ccc([N+](=O)[O-])cc2)Oc2ccccc21 [Aurone 2010] | 14.5 | 40.7 | 249 | 20 | 20 |  |
| O=C1/C(=C/c2ccc(C(F)(F)F)cc2)Oc2cc(O)ccc21 [Aurone 2909, (Z)-6-hydroxy-2-(4-(trifluoromethyl)benzylidene)benzofuran-3(2H)-one] | 3.97 | > 50 | > 100 | > 50 | > 50 | Selectivity L6/La ([3]; Table 1): >25.19; Selectivity L6/La [3, 11]: >25.19; IC50 [1, 12]: > 50 µM; IC50 [4, 14]: > 100 µM |
| O=C1/C(=C/c2cccc(O)c2)Oc2ccccc21 [Sample 9252] |  |  |  |  |  | IC50 [4, 13]: > 100 µM; IC50 [2, 18]: 16.5 µM |
| COc1ccc(/C=C2\Oc3cc(O)ccc3C2=O)cc1 [Aurone 6620, (Z)-6-hydroxy-2-(4-methoxybenzylidene)benzofuran-3(2H)-one] | < 1 | < 1 | > 100 | 35.1 | 35.1 | IC50 [3, 5]: < 1 µM; Selectivity L6/La ([3]; Table 1): >100; Selectivity L6/La [3, 11]: >100; Selectivity L6/Tb ([1]; Table 1): >100; Selectivity L6/Tb [1, 19]: >100; IC50 [1, 12]: < 1 µM; IC50 [4, 14]: > 100 µM; Selectivity L6/Tc [2, 15]: >2.85; Selectivity L6/Tc [2, 16]: >2.85 |
| CC(=O)N1/C(=C\c2ccc[nH]2)C(=O)c2ccccc21 [AA5A] | < 1 | 26.3 | 39.8 | 33.5 | 33.5 |  |
| O=C1/C(=C/c2ccc[nH]2)Oc2ccccc21 [Aurone 2021] | < 1 | 38.9 | 82.7 | 14.6 | 14.6 | IC50 [4, 20]: 82.7 µM; IC50 [2, 21]: 14.6 µM |
| COc1ccc(/C=C2\Oc3ccccc3C2=O)c(OC)c1OC [Aurone 2001] | 13.3 | 22.4 | > 100 | > 50 |  |  |
| O=C1/C(=C/c2ccc(Cl)cc2)Oc2ccccc21 [Aurone 9019, (Z)-2-(4-chlorobenzylidene)benzofuran-3(2H)-one] | 41.5 | 34.7 | > 100 | 5.53 | 5.53 | Selectivity L6/La ([3]; Table 1): >2.41; Selectivity L6/La [3, 11]: >2.41; Selectivity L6/Tb ([1]; Table 1): >2.88; Selectivity L6/Tb [1, 19]: >2.88; Selectivity L6/Tb ([1]; Table 3A, estimated from highest L6 dose tested where no L6 IC50): >2.88; IC50 [4, 13]: > 100 µM; IC50 [4, 14]: > 100 µM; Selectivity L6/Tc [2, 15]: >18.08; Selectivity L6/Tc [2, 16]: >18.08; Selectivity L6/TC-I [2, 17]: >18.08; IC50 [2, 18]: 5.53 µM |
| N#Cc1ccc(/C=C2\Oc3ccccc3C2=O)cc1 [Aurone 7c] |  |  |  |  |  | selectivity for T. brucei (L6/Tb) [1]: 29.49 and 29.46; IC50 [1, 7]: 8.12 µM |
| O=C1/C(=C/c2ccc(Cl)cc2)Oc2ccccc21 [Aurone 3c, (Z)-2-(4-chlorobenzylidene)benzofuran-3(2H)-one] |  |  |  |  |  | IC50 ([2]; read-out: T. cruzi IC50 dose): < 10 µM |
| O=C1/C(=C/c2ccccc2Cl)Oc2ccccc21 [Aurone 3a, (Z)-2-(2-chlorobenzylidene)benzofuran-3(2H)-one] |  |  |  |  |  | selectivity for T. brucei (L6/Tb) [1]: 21.02; IC50 [1, 7]: 11.3 µM |
| O=C1/C(=C/c2cccc(I)c2)Oc2ccccc21 [Aurone 4b, (Z)-2-(3-iodobenzylidene)benzofuran-3(2H)-one] |  |  |  |  |  | IC50 [1, 7]: > 50 µM; IC50 ([2]; read-out: T. cruzi IC50 dose): < 10 µM |
| O=C1/C(=C/c2cccc(Br)n2)Oc2ccccc21 [Aurone 9260, (Z)-2-((6-bromopyridin-2-yl)methylene)benzofuran-3(2H)-one] |  | 43.6 | > 100 | 14.6 |  | Selectivity L6/Tb ([1]; Table 1): >2.29; Selectivity L6/Tb [1, 22]: >4.96; IC50 [1, 7]: 43.6 µM; IC50 [4, 20]: > 100 µM; Selectivity L6/Tc [2, 15]: >6.87; Selectivity L6/Tc-I [2, 22]: >6.87; IC50 [2, 21]: 14.6 µM |
| COC(=O)c1ccc(/C=C2\Oc3ccccc3C2=O)cc1 [Aurone 13, Methyl (Z)-4-((3-oxobenzofuran-2(3H)-ylidene)methyl)benzoate] |  |  |  |  |  | activity against T. brucei [1]: no activity; activity against T. cruzi [2]: no activity |
| O=C1/C(=C/c2ccc(C(F)(F)F)cc2)Oc2ccccc21 [Aurone 6c, (Z)-2-(4-(trifluoromethyl)benzylidene)benzofuran-3(2H)-one] |  |  |  |  |  | IC50 ([2]; read-out: T. cruzi IC50 dose): < 10 µM |
| O=C1/C(=C/c2cccc(Br)c2)Oc2ccccc21 [Aurone 5b, (Z)-2-(3-bromobenzylidene)benzofuran-3(2H)-one] |  |  |  |  |  | IC50 [1, 7]: > 50 µM; IC50 ([2]; read-out: T. cruzi IC50 dose): < 10 µM |
| O=C1/C(=C/c2ccc([N+](=O)[O-])cc2)Oc2ccccc21 [Aurone 12b] |  |  |  |  |  | activity against T. brucei [1]: modest activity; activity against T. cruzi [2]: modest activity |
| O=C1/C(=C/c2ccc[nH]2)Nc2ccccc21 [AA5] |  | 49.3 | 39.7 | 27.8 |  |  |
